Reference: PMC3940197, “Identification of the first small-molecule ligand of the neuronal receptor sortilin and structure determination of the receptor–ligand complex” (Acta Crystallographica Section D: Biological Crystallography, 2014)

Key:
sortilin [1] = molecular target: T1, sortilin (Homo sapiens, UniProt Q99523); assay: 3H-neurotensin-binding sortilin scintillation proximity assay (SPA); settings: for IC50: 150 nM sortilin, 5 nM 3H-neurotensin, averages of at least four determinations, read-out: IC50 (displacement of 3H-neurotensin binding to sortilin); for activity in SPA assay (in words): structure-activity relationship relative to hit 1a
T1 construct: The extracellular Vps10p domain of sortilin was overexpressed in HEK293F cells and purified from the medium; made in house; host or cells: HEK293F
T1 sequence (Q99523 78-755 limits assumed): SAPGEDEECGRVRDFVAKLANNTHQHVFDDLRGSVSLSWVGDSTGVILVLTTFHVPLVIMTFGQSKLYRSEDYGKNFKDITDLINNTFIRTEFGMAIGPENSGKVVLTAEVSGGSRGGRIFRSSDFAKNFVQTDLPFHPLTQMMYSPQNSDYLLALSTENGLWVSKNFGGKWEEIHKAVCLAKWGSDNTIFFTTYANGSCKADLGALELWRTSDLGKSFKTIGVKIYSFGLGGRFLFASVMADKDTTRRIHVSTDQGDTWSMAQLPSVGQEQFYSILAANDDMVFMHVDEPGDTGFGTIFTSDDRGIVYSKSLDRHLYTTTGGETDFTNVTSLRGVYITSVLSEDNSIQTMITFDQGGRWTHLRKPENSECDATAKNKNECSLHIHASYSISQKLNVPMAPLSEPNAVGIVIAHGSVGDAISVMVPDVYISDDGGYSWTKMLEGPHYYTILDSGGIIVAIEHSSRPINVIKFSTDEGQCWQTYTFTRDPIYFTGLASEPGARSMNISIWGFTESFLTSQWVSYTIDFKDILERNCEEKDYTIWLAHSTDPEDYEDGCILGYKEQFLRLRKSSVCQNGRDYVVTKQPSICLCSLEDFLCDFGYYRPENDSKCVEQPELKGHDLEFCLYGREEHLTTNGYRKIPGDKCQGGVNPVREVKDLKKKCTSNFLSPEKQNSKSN
Method: The open reading frame of human sortilin including the endogenous signal peptide to residue 723 was amplified by PCR and cloned into the pCEP-pu vector with XbaI and XhoI. The primers were designed to include a C-terminal factor Xa site followed by a hexahistidine tag. HEK293F cells were transfected with 900 µg plasmid, applying 900 µl FreeStyle MAX reagent (Invitrogen) according to the manufacturer’s instructions, and were grown in 900 ml FreeStyle 293 medium (Invitrogen) in a 3 l Erlenmeyer flask for 7 d. The medium was harvested by centrifugation at 3700g for 15 min, filtered through a 0.40 µm filter and the pH was adjusted by supplementation with Tris–HCl pH 8.0 to a final concentration of 50 mM. A 5 ml Ni–NTA column (GE Healthcare) was equilibrated in buffer A (50 mM Tris–HCl pH 8.0, 150 mM NaCl) and the medium was recirculated over the column overnight. The column was washed with five column volumes of wash buffer (50 mM Tris–HCl pH 8.0, 150 mM NaCl, 10 mM imidazole) and sortilin was eluted with a ten-column-volume imidazole gradient (10–250 mM imidazole). Fractions containing sortilin were pooled and concentrated by […] (Vivaspin 20, 10 kDa cutoff, Sartorius). The sortilin was applied onto a Superdex 200 10/300 GL column (GE Healthcare) equilibrated in buffer A. Fractions containing sortilin were pooled, concentrated to a final concentration of 5 mg ml^−1, flash-frozen in liquid nitrogen and stored at −80°C.
The compound affinity was determined by measuring the displacement of ^3H-neurotensin binding to sortilin using a scintillation proximity assay (SPA). Experiments were performed in assay buffer (50 mM HEPES pH 7.4, 100 mM NaCl, 2.0 mM CaCl2, 0.1% BSA, 0.1% Tween-20) with a total volume of 40 µl. The compound was pre-incubated for 30 min at room temperature with 150 nM sortilin before 5 nM ^3H-neurotensin and Ni-chelate imaging beads (Perkin Elmer) were added. After 6 h, the plate was read on a ViewLux with 360 s exposure time. Unlabelled neurotensin and a DMSO blank were used as positive and negative controls, respectively. Dose-response evaluation of compounds was performed with ten concentrations of 1a–1h and AF40431 (covering concentrations between 2.5 nM and 50 µM). The half-maximal inhibitory concentration (IC50) values were calculated by nonlinear regression using the sigmoid concentration response (variable slope) in XLfit 4 (IDBS, UK). All values reported are the averages of at least four determinations.

sortilin [2] = molecular target: T2, sortilin (Homo sapiens, UniProt Q99523); assay: Isothermal titration calorimetry (ITC) of binding to sortilin; settings: 25°C, PBS pH 7.4, 4% DMSO, read-out: dissociation constant (Kd)
T2 construct: The extracellular Vps10p domain of sortilin was overexpressed in HEK293F cells and purified from the medium; made in house; host or cells: HEK293F
T2 sequence (Q99523 78-756): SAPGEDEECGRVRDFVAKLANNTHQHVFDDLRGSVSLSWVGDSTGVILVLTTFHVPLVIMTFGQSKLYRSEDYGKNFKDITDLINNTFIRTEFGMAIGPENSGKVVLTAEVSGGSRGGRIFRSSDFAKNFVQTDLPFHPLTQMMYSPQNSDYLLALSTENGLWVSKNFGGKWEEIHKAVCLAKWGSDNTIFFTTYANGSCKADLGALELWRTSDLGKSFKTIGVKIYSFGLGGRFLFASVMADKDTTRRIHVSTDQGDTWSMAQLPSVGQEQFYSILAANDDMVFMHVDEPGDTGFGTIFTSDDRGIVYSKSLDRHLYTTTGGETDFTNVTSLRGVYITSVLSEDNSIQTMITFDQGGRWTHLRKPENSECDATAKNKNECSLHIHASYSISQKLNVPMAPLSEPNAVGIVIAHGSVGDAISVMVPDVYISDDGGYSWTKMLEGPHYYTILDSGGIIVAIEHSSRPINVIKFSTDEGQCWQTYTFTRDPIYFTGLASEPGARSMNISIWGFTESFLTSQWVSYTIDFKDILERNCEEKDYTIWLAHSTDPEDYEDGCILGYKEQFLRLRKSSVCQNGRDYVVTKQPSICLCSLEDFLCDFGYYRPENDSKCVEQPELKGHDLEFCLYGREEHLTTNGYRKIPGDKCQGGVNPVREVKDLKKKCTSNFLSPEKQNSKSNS
Method: The open reading frame of human sortilin including the endogenous signal peptide to residue 723 was amplified by PCR and cloned into the pCEP-pu vector with XbaI and XhoI. The primers were designed to include a C-terminal factor Xa site followed by a hexahistidine tag. HEK293F cells were transfected with 900 µg plasmid, applying 900 µl FreeStyle MAX reagent (Invitrogen) according to the manufacturer’s instructions, and were grown in 900 ml FreeStyle 293 medium (Invitrogen) in a 3 l Erlenmeyer flask for 7 d. The medium was harvested by centrifugation at 3700g for 15 min, filtered through a 0.40 µm filter and the pH was adjusted by supplementation with Tris–HCl pH 8.0 to a final concentration of 50 mM. A 5 ml Ni–NTA column (GE Healthcare) was equilibrated in buffer A (50 mM Tris–HCl pH 8.0, 150 mM NaCl) and the medium was recirculated over the column overnight. […]
The binding of AF40431 to sortilin was measured by isothermal titration calorimetry (ITC). […] Heat evolving from dilution was measured by injecting the ligand into PBS supplemented with 4% DMSO. […] Finally, the binding stoichiometry (n), equilibrium dissociation constant (K d), molar enthalpy and entropy changes for the binding processes were determined by analyzing the titration data using Origin software (OriginLab, Northampton, Massachusetts, USA).

NTSR1 = NTSR1 (Homo sapiens, UniProt P30989); assay: Competition of NTS binding to NTSR1; settings: data not shown
NTSR1, sequence (P30989 whole entry, species assumed): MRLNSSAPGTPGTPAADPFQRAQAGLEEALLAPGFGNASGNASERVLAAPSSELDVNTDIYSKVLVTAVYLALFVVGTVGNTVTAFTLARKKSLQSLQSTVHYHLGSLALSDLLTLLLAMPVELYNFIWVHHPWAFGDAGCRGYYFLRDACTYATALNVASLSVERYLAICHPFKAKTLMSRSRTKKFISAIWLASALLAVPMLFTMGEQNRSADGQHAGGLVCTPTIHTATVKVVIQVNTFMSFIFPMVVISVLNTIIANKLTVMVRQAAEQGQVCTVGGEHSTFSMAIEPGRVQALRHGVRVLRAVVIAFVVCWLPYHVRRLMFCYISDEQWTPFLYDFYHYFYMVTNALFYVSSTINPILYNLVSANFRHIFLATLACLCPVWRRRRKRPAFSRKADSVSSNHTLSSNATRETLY

proNGF (Homo sapiens) = proNGF (Homo sapiens) (UniProt P01138); settings: cited from earlier work
proNGF (Homo sapiens), sequence (P01138 122-241): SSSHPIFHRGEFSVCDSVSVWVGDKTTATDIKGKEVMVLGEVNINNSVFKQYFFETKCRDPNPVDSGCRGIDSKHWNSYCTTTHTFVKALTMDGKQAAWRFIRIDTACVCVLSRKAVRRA

Row | Compound | IC50 (sortilin [1]) | Kd (sortilin [2]) | IC50 (NTSR1) | activity in SPA assay (in words) (sortilin [1]) | Kd (proNGF (Homo sapiens))
1 | Cc1cc(=O)oc2c(CN[C@@H](CC(C)C)C(=O)O)c(O)ccc12 [AF40431] | 4.4 ± 0.7 µM | 0.7 µM | > 50 µM | – | –
2 | Cc1cc(=O)oc2c(CNC(CC(C)C)C(=O)O)c(O)ccc12 (stereo not shown) [Compound 1a] | 1.8 µM | – | – | – | –
3 | CCC(C)C(NCc1c(O)ccc2c(C)cc(=O)oc12)C(=O)O (stereo not shown) [Compound 1b] | 6.1 ± 2.7 µM | – | – | activity was retained | –
4 | Cc1cc(=O)oc2c(CNC(CC(C)(C)C)C(=O)O)c(O)ccc12 (stereo not shown) [Compound 1c] | 3.1 ± 1.1 µM | – | – | activity was retained | –
5 | Cc1cc(=O)oc2c(CNC(C(=O)O)C3CCCCC3)c(O)ccc12 (stereo not shown) [Compound 1d] | 1.7 ± 0.3 µM | – | – | activity was retained | –
6 | Cc1cc(=O)oc2c(CNC(C(=O)O)C(C)C)c(O)ccc12 (stereo not shown) [Compound 1e] | > 50 µM | – | – | activity was ablated | –
7 | Cc1cc(=O)oc2c(CNC(C)C(=O)O)c(O)ccc12 (stereo not shown) [Compound 1f] | > 50 µM | – | – | activity was ablated | –
8 | Cc1cc(=O)oc2c(CNC(Cc3ccccc3)C(=O)O)c(O)ccc12 (stereo not shown) [Compound 1g] | > 50 µM | – | – | activity was ablated | –
9 | Cc1cc(=O)oc2c(CN[C@H](CC(C)C)C(=O)O)c(O)ccc12 [Compound 1h] | > 50 µM | – | – | inactive | –
10 | Sortilin (from UniProt Q99523) | – | – | – | – | 0.00016 µM
